Assay results reported in US20090232735A1, “USE OF FRUCTOSE-BASED THERAPIES FOR THE TREATMENT OF CANCER” (CEDARS-SINAI MEDICAL CENTER, priority 2005, published 2009).

Experiments:
[1] = test system: PANC-1 pancreatic cancer cells; assay: PANC-1 pancreatic cancer cell proliferation (MTS assay); assay type: cell-based, human
Protocol: FIG. 13 depicts higher proliferation rates in pancreatic cancer cells in fructose (5.5 mM) than glucose (5.5 mM) containing medium in accordance with an embodiment of the present invention. PANC-1 cells were pre-incubated in 2 mM glucose, after which they were plated in 5.5 mM fructose or glucose for times between 12-72 h, after which proliferative rates were measured using an MTS assay. Proliferative rates are expressed as the percentage difference between cells grown in 5.5 mM fructose versus 5.5 mM glucose. p<0.01 for times>48 h.
FIG. 14 depicts proliferation rates of pancreatic cells in different fructose or glucose concentrations in accordance with an embodiment of the present invention. PANC-1 cells were plated in a range of fructose or glucose concentrations (5-25 mM) for 72 h, after which proliferative rates were measured using an MTS assay. *, p<0.05 for concentrations between 5-25 mM fructose versus glucose.
FIG. 17 depicts cell proliferation regardless of co-existent glucose concentration in accordance with an embodiment of the present invention. PANC-1 cells were pre-incubated in 2 mM glucose prior to treatment with a range of concentrations (0-15 mM) mixed with a range of fructose concentrations (0-15 mM) for 72 h. PANC-1 cell proliferative rates were then measured using the MTS assay (absorbance in arbitrary units).
FIG. 35 depicts inhibition of pancreatic cancer PANC-1 cell proliferation by incubation with the transketolase inhibitor, oxythiamine (0.5-2 mM) for 72 h in accordance with an embodiment of the present invention. Proliferative rates were measured using the MTS proliferation assay.
Standard media for maintenance cancer cell line culture, including pancreatic cancer cells such as PANC-1 cells contain either low—(5-7 mM), or high—(12-25 mM) glucose concentrations. Clearly, apart from the setting of hyperglycemia, as in patients with diabetes, the glucose concentrations in which pancreatic cancer cells are maintained in vitro are much higher than normal physiological conditions, which range between 2-5 mM glucose. […] Therefore, the inventors first pre-treated the pancreatic cancer cells overnight in standard DMEM medium containing low physiological glucose concentrations (2 mM glucose), and standard 10% fetal bovine serum. The pancreatic cancer cells were then incubated for times between 12, and 96 hours in standard DMEM medium containing 10% fetal bovine serum, and 5.5 mM glucose or 5.5 mM fructose. Proliferative rates were then measured in replicate (minimum of 6) aliquot wells of the pancreatic cancer cells, and the change (expressed as percent increase) in proliferative rates compared between cells grown in glucose, or fructose containing medium.
This first result intrigued the inventors, but given there is little documentation regarding physiological fructose concentrations, the inventors first considered that the “apparent” pro-proliferative effects of fructose were simply a consequence of the highly stylized in vitro experimental conditions, and that if the pancreatic cancer cells were cultured in higher glucose concentrations, this would result in similar proliferative rates to those the inventors observed following culture in 5.5 mM fructose. Therefore, in the next experiments, the inventors compared proliferative rates of the PANC-1 pancreatic cancer cells following culture for 72 h in a range of fructose, and glucose concentrations (2-25 mM). This timepoint was chosen as the inventors had seen maximal pancreatic cancer cell proliferation in 5.5 mM fructose at 72 h. […] While not wishing to be bound by any particular theory, the inventors believe that this latter finding may be because the PANC-1 cells are proliferating at close to maximal capacity by 72 h, once they are exposed to comparatively low fructose concentrations (5 mM). MTS assay was employed to measure pancreatic cancer cell proliferative rates, which utilizes mitochondrial oxidation to quantify cell proliferation. […]

[2] = test system: MAPK pathway (pMEK, pRsk, pCREB) in MCF-7, and MDA-MB231 breast cancer cells; assay: Western blot of MAPK pathway in breast cancer cells; assay type: cell-based, human
Protocol: FIG. 11 depicts increased breast cancer phosphorylated-MEK, phosphorylated Rsk, and phosphorylated CREB in accordance with an embodiment of the present invention. MCF-7 breast cancer cells were incubated in 2 mM glucose, 5 mM glucose or 5 mM fructose for 24 hours, after which Western blot analysis on total protein lysates was employed to examine components of the MAP kinase pathway. […] Total MEK, Rsk, and CREB levels, and β-actin served as loading controls.
Although several signal transduction pathways are likely involved in the fructose-mediated enhanced breast cancer growth and while not wishing to be bound by any particular theory, the inventors believe that the MAP-kinase pathway is involved. The inventors have used Western blot analysis to examine the MAPK pathway in breast cancer cells incubated in 2 mM glucose, 5.5 mM glucose, and 5.5 mM fructose for 48 hours. […] Activation of MEK, and subsequently ERK results in phosphorylation of p90^Rsk, which leads to transcriptional activation of CREB and AP1, which bind to cAMP or AP1 response elements respectively, activating gene transcription and promoting cellular growth.

O=C(CO)[C@@H](O)[C@H](O)[C@H](O)CO [fructose]
difference in proliferative rates, fructose vs glucose ([1]; PANC-1, 5.5 mM fructose vs 5.5 mM glucose, 48 h): ~13%
higher proliferative rate, fructose vs glucose ([1]; PANC-1, 5.5 mM fructose vs 5.5 mM glucose, 72 h): 23%
proliferative rates in 5 mM fructose compared to 25 mM glucose ([1]; PANC-1, 72 h): higher proliferative rates
cell proliferation with admixed glucose (0-15 mM) and fructose (0-15 mM) ([1]; PANC-1, 72 h, fructose concentrations of 6 mM and above, regardless of glucose concentration): an increase in cell proliferation
phospho-MEK expression ([2]; 5.5 mM fructose vs 5.5 and 2 mM glucose, MCF-7 and MDA-MB231): increased expression of phospho-MEK (pMEK)
phospho-Rsk and phospho-CREB ([2]; 5.5 mM fructose, 24 h, vs 5.5 and 2 mM glucose): increased phospho-Rsk (pRsk), and phospho-CREB (pCREB)
